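Five concentrations, 48 hours, 96-well plates. GI50: concentration for 50% inhibition of growth.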 Calls of active or inactive are those of the source. Rule as the data show it: active = GI50 up to about 1.1 µM and inactive = higher.
What was measured:
Experiment in all cases: inhibition of tumour cell growth, NCI panel, 48 h
MDA-MB-231 = test system: MDA-MB-231
T47D = test system: T47D
IGROV-1 = test system: IGROV-1
SF-539 = test system: SF-539
MDA-MB-435 = test system: MDA-MB-435
SK-MEL-2 = test system: SK-MEL-2
M14 = test system: M14
RPMI-8226 = test system: RPMI-8226
SW-620 = test system: SW-620
SNB-19 = test system: SNB-19
HCC 2998 = test system: HCC 2998
UACC-257 = test system: UACC-257
DU-145 = test system: DU-145
HL-60 = test system: HL-60
MCF7 = test system: MCF7
MDA-N = test system: MDA-N
CAKI-1 = test system: CAKI-1
SNB-75 = test system: SNB-75
NCI-H23 = test system: NCI-H23
LOX IMVI = test system: LOX IMVI

Measured: GI50

CC(=O)Oc1cc2c(cc1OCC(F)(F)F)[C@H]1CC[C@]3(C)[C@@H](OC(C)=O)CC[C@H]3[C@@H]1CC2=O
inactive: MDA-MB-231 11.1 µM | T47D 23.3 µM | IGROV-1 18.7 µM | SF-539 19.3 µM | MDA-MB-435 21.6 µM | SK-MEL-2 16.9 µM | M14 26.4 µM | RPMI-8226 22.3 µM | SW-620 21.7 µM | SNB-19 18.8 µM | HCC 2998 16.8 µM | UACC-257 18.9 µM | DU-145 20.7 µM | HL-60 13.9 µM | MCF7 18.9 µM | MDA-N 24.1 µM | CAKI-1 17.4 µM | SNB-75 16 µM | NCI-H23 21.2 µM | LOX IMVI 15.4 µM

Cc1c(-c2nc(N)nc(C3CC3)c2C)nc(N)nc1C1CC1
inactive: MDA-MB-231 > 100 µM | T47D > 100 µM | IGROV-1 > 100 µM | SF-539 > 100 µM | MDA-MB-435 > 100 µM | SK-MEL-2 > 100 µM | M14 > 100 µM | RPMI-8226 > 100 µM | SW-620 > 100 µM | SNB-19 > 100 µM | HCC 2998 > 100 µM | UACC-257 > 100 µM | DU-145 > 100 µM | HL-60 > 100 µM | MCF7 > 100 µM | MDA-N > 100 µM | CAKI-1 > 100 µM | SNB-75 > 100 µM | NCI-H23 > 100 µM | LOX IMVI > 100 µM

COc1ccc(SCc2cc(OC)ccc2OC)cc1
inactive: MDA-MB-231 82.2 µM | T47D 25.5 µM | IGROV-1 15.9 µM | SF-539 39.2 µM | MDA-MB-435 2.75 µM | SK-MEL-2 8.59 µM | M14 57.5 µM | RPMI-8226 34 µM | SW-620 10.6 µM | SNB-19 34 µM | HCC 2998 9.77 µM | UACC-257 74 µM | DU-145 44.4 µM | HL-60 6.01 µM | MCF7 15.1 µM | MDA-N 3.33 µM | CAKI-1 31.9 µM | SNB-75 11.1 µM | NCI-H23 37.9 µM | LOX IMVI 34.8 µM

CCCCCCCCCCCCC1N=C(N)N2CCCC2=C1C(=O)OC (stereo not given)
inactive: MDA-MB-231 1.9 µM | T47D 1.69 µM | IGROV-1 3.22 µM | SF-539 5.41 µM | MDA-MB-435 1.86 µM | SK-MEL-2 2.32 µM | M14 1.73 µM | RPMI-8226 1.82 µM | SW-620 1.7 µM | SNB-19 1.8 µM | HCC 2998 1.84 µM | UACC-257 1.86 µM | DU-145 8.07 µM | HL-60 1.85 µM | MCF7 1.77 µM | MDA-N 1.95 µM | CAKI-1 3.24 µM | SNB-75 1.54 µM | NCI-H23 2.26 µM | LOX IMVI 1.51 µM

CC1=C(C(=O)OCCc2ccc([N+](=O)[O-])cc2)C(c2ccccc2C(F)(F)F)C(C(=O)OC(C)C)=C(C)N1 (stereo not given)
inactive: MDA-MB-231 3.79 µM | T47D 3.12 µM | IGROV-1 4.88 µM | SF-539 3.82 µM | MDA-MB-435 3.84 µM | SK-MEL-2 2.64 µM | M14 2.41 µM | RPMI-8226 3.1 µM | SW-620 3.68 µM | SNB-19 4.85 µM | HCC 2998 4.92 µM | UACC-257 3.86 µM | DU-145 9.16 µM | HL-60 1.79 µM | MCF7 3.36 µM | MDA-N 4.33 µM | CAKI-1 2.9 µM | SNB-75 4.04 µM | NCI-H23 3.7 µM | LOX IMVI 2.96 µM

O=C(/C=C/c1ccsc1)c1ccsc1
inactive: MDA-MB-231 20.6 µM | T47D 28.2 µM | IGROV-1 31.3 µM | SF-539 17.5 µM | MDA-MB-435 22.5 µM | SK-MEL-2 > 100 µM | M14 33.7 µM | RPMI-8226 15.5 µM | SW-620 24.8 µM | SNB-19 20.2 µM | HCC 2998 19.5 µM | UACC-257 19.1 µM | DU-145 > 100 µM | HL-60 17 µM | MCF7 13.8 µM | MDA-N 23.2 µM | CAKI-1 20.9 µM | SNB-75 37 µM | NCI-H23 21.6 µM | LOX IMVI 19.1 µM

CC(=O)c1c2c(cc3c1CC1(Cc4cc5c(cc4C1)CCC5)C3)CCC2
inactive: MDA-MB-231 > 100 µM | T47D > 100 µM | IGROV-1 > 100 µM | SF-539 > 100 µM | MDA-MB-435 > 100 µM | SK-MEL-2 > 100 µM | M14 > 100 µM | RPMI-8226 > 100 µM | SW-620 > 100 µM | SNB-19 > 100 µM | HCC 2998 > 100 µM | UACC-257 63.8 µM | DU-145 > 100 µM | HL-60 > 100 µM | MCF7 > 100 µM | MDA-N > 100 µM | CAKI-1 > 100 µM | SNB-75 > 100 µM | NCI-H23 > 100 µM | LOX IMVI > 100 µM

From ChEMBL document CHEMBL1201862, “PubChem BioAssay data set” (2004)
